Data as given in paper PMC10548421, “Anticancer Potential of Diruthenium Complexes with Bridging Hydrocarbyl Ligands from Bioactive Alkynols” (Inorganic Chemistry, 2023).
Like-named read-outs stand apart in the source and are kept apart here.

Tests used:
[1] = Octanol/water partition coefficient, shake-flask with UV–vis; type: physicochemical; settings: 21 °C
Procedure: Partition coefficients (Pow), defined by the formula Pow = corg/caq, wherein corg and caq denote the molar concentrations of the specific compound in octanol and aqueous phases, respectively, were obtained using the shake-flask method with UV–vis measurements, following a previously described procedure (Table 3).[98] All the operations were carried out at 21 ± 1 °C. The wavelength corresponding to the maximum absorption of each compound within the range 350–430 nm was employed for quantifying using UV–vis techniques.

[2] = Stability in H2O/CH3OH solution (UV–vis); type: physicochemical; settings: ca. 5:1 v/v
Procedure: (§1) […] The percentage of remaining complex in the solution was calculated by considering the change in absorbance at the characteristic wavelength. The identical procedure was employed to evaluate stability in MeOH and DMEM (about 1:5 v/v) solutions. DMEM stands for the cell culture medium (containing 1000 mg/L glucose and L-glutamine, excluding sodium bicarbonate and phenol red; reference D2902-Merck).

[3] = Stability in DMEM/CH3OH solution (UV–vis); type: physicochemical; settings: ca. 5:1 v/v
Procedure: as §1

[4] = tested on: A2780 human ovarian carcinoma cell line; assay: MTT in vitro cytotoxicity, A2780; type: cell-based
Procedure: (§2) The cytotoxicity assessment was conducted on various human cancer cell lines, including A2780 ovarian carcinoma, A2780R cisplatin-resistant ovarian carcinoma, MCF-7 breast, HOS osteosarcoma, A549 epithelial lung, PANC-1 pancreatic, Caco-2 colorectal, PC-3 prostate adenocarcinoma, and HeLa cervical cell lines. Additionally, the assessment extended to a normal human fetal fibroblast cell line (MRC-5). Cells were obtained from ATCC collection and cultivated according to the producer’s instructions. Stock solutions of the compounds were prepared in DMF immediately before application, and diluted with H2O to achieve the final concentration of 0.1% v/v DMF.[99] The culture media were enriched with 10% fetal calf serum. Subsequently, the cells were exposed to the tested compounds, vehicle (0.1% v/v DMF) and Triton X-100 (1% v/v), during incubation. The conventional MTT assay was carried out following different incubation periods (Tables 5-6). The absorbance was measured at 570 nm by using a spectrophotometer (Infinite M200, Schoeller Instruments, Prague, Czech Republic). The obtained data are presented as the percentage of cell viability with 100% representing negative control treatment (0.1% v/v DMF) and 0% representing the positive control (Triton X-100). The half-maximal inhibitory concentrations (IC50) were determined from dose–response curves using GraphPad Prism 6 software (GraphPad Software, San Diego, USA).

[5] = tested on: A549 human lung adenocarcinoma cell line; assay: MTT in vitro cytotoxicity, A549; type: cell-based; settings: incubation 24 h, mean ± SD
Procedure: as §2

[6] = tested on: PC-3 human prostate carcinoma cell line; assay: MTT in vitro cytotoxicity, PC-3; type: cell-based; settings: incubation 24 h, mean ± SD
Procedure: as §2

[7] = tested on: HeLa human cervical carcinoma cell line; assay: MTT in vitro cytotoxicity, HeLa; type: cell-based; settings: incubation 24 h, mean ± SD
Procedure: as §2

[8] = tested on: MRC-5 normal human lung fibroblast cell line; assay: MTT in vitro cytotoxicity, MRC-5 (selectivity); type: cell-based; settings: for IC50: normal cells, MTT, incubation 24 h, mean ± SD
Procedure: as §2

A2780 cells [9] = assay: Autophagy analysis (CYTO-ID); type: cell-based, human; settings: A2780, complexes 4 μM, cisplatin 15 μM, 24 h
Procedure: (§3) The A2780 ovarian carcinoma cell line was received from Merck (reference 93112519–1VL) and cultured at 37 °C in an environment with 5% CO2. The cultivation was carried out in complete cell culture medium (RPMI-1640 medium, Merck), which was supplemented with 10% fetal bovine serum (FBS, Merck), 1% L-glutamine (Merck) and 1% penicillin–streptomycin–neomycin (PSN, Merck). For the flow cytometry experiments, three independent duplicates were analyzed using a BD FACSVerse flow cytometer (Becton Dickinson, USA). At least 5 × 10^3 events were recorded for each sample. The same procedure was replicated for the experiments described below. Solutions of the complexes were formulated using the stock solutions (Section 5.1).
The potential induction of autophagy by 3a and 3b in A2780 cells was studied with the kit CYTO-ID Autophagy Detection 2.0 (from Enzo Life Sciences, USA), following the protocol provided by the manufacturer. […] The supernatant was collected, cells were washed with warm PBS, detached using 0.25% trypsin-EDTA (Gibco) and resuspended in a cell culture medium. Diluted CYTO-ID Green stain solution (according to the protocol) was used to stain the samples. Following incubation for 30 min in a light-protected environment, the samples were washed with PBS (phosphate-buffered saline). Subsequently, a flow cytometry experiment was conducted. A mixture of chloroquine (10 μM) and rapamycin (0.5 μM) was used as positive control.

A2780 cells [10] = assay: ROS production assessment (ROS-ID); type: cell-based, human; settings: A2780, 4 μM, 24 h
Procedure: as §3
ROS-ID Total ROS/Superoxide detection kit (from Enzo Life Sciences, US) was employed to quantify ROS and superoxide generation in A2780 cells following the treatment with the tested compounds. Thus, cells were seeded in a 96-well plate (10^4 cells/well) and incubated with 4 μM solution of complexes for 24 h. A 100 μM solution of pyocyanin, which is a known oxidative-stress inducer, was used as a positive control. […] Finally, a microplate reader Infinite M200Pro (Tecan, Switzerland) was used to measure sample fluorescence (green: Ex. 488 nm/Em. 520 nm, and red: Ex. 550 nm/Em. 610 nm) and three independent experiments were done in triplicates.

A2780 cells [11] = assay: Mitochondrial membrane potential analysis (MITO-ID); type: cell-based, human; settings: A2780, complexes 4 μM, cisplatin 15 μM, 24 h
Procedure: as §3
To investigate the effects on mitochondrial membrane potential of A2780 cells, an MITO-ID Membrane potential detection kit (Enzo Life Sciences, USA) was used. Cells were seeded in a 24-well (5 × 10^4 cells/well), and then incubated with 4 μM solution of complexes for 24 h. The supernatant was collected, cells were washed with warm PBS, detached using 0.25% trypsin-EDTA (Gibco) and resuspended in a cell culture medium. Then, samples were stained with diluted MITO-ID MP Detection Reagent (according to the protocol) at RT for 15 min, prior to flow cytometry analysis. A positive control was established by treating the samples with 2 μM carbonyl cyanide 3-chlorophenylhydrazone.

[12] = MTT, incubation 24 h, mean ± SD (Table 5), read-out: IC50 A2780
[13] = time-course experiment (Table 6), 24 h, mean ± SD, read-out: IC50 A2780, incubation time 24 h
[14] = time-course experiment (Table 6), 48 h, mean ± SD, read-out: IC50 A2780, incubation time 48 h
[15] = time-course experiment (Table 6), 72 h, mean ± SD, read-out: IC50 A2780, incubation time 72 h

| SMILES | Log Pow [1] | residual complex % in H2O/CH3OH ([2]; 30 min) | residual complex % in H2O/CH3OH ([2]; 2 h) | residual complex % in H2O/CH3OH ([2]; 18 h) | residual complex % in DMEM/CH3OH ([3]; 2 h) | residual complex % in DMEM/CH3OH ([3]; 18 h) | IC50 [4, 12] | IC50 [4, 13] | IC50 [4, 14] | IC50 [4, 15] | IC50 [5] | IC50 [6] | IC50 [7] | IC50 on healthy MRC-5 cell line compared to the average IC50 values of the cancer cell lines ([8]; 24 h, selectivity) | IC50 [8] | autophagy level (in words) (A2780 cells [9]) | intracellular ROS levels (in words) (A2780 cells [10]) | cell count with damaged mitochondrial membranes (in words) (A2780 cells [11]) |
| --- | --- | --- | --- | --- | --- | --- | --- | --- | --- | --- | --- | --- | --- | --- | --- | --- | --- | --- |
| CC12CCC3c4ccc(O)cc4CCC3C1CCC2=C=[CH][Ru]1(=[C]=O)([CH]2C=CC=C2)[C](=O)[Ru+]1(=[C]=O)[CH]1C=CC=C1.F[B-](F)(F)F (mixture of isomers) [3b, [Ru2Cp2(CO)3{μ–η^1:η^2-CH=C=(estradiolylidene)}]BF4] | 1.24 ± 0.16 | 99% | 92% | 43% | 88% | 42% | 3.4 ± 0.6 µM | 4 ± 0.7 µM | 3 ± 0.3 µM | 2.8 ± 0.2 µM | 16.1 ± 1.3 µM | 13.4 ± 1.8 µM | 12.5 ± 1.1 µM | approximately 2 fold | 25.9 ± 2.9 µM | only moderately | no appreciable effect | notable augmentation |
| F[B-](F)(F)F.O=[C]=[Ru+]1([CH]2C=CC=C2)[C](=O)[Ru]1(=[C]=O)([CH]=C=C1CCCC1)[CH]1C=CC=C1 (stereo not shown) [3a, [Ru2Cp2(CO)3{μ–η^1:η^2-CH=C=(cyclopentylidene)}]BF4] | –0.54 ± 0.02 |  | 96% | 78% | 94% | 12% | 4.2 ± 0.9 µM | 3.8 ± 0.7 µM | 3.2 ± 0.2 µM | 3.1 ± 0.2 µM | 25.3 ± 1.9 µM | 22.2 ± 2.4 µM | 17.5 ± 2.9 µM |  | 38.3 ± 3.9 µM | not appreciable | noteworthy elevation of intracellular ROS levels | notable augmentation |
